Reference: ChEMBL document CHEMBL1201862, “PubChem BioAssay data set” (2004)
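1) Cells in 96-well plates. 2) Compound, 48 h, 5 concentrations. 3) Linear interpolation between surrounding doses. 4) Unreached endpoint = highest concentration. GI50 = concentration required for 50% inhibition of growth.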 Activity calls are given as the source filed them. Rule as the data show it: active = GI50 up to about 1.1 µM and inactive = higher.

How the values were obtained:
Test in all cases: NCI tumour cell line growth inhibition, 48 h
K562 = test system: K562
UO-31 = test system: UO-31
SF-295 = test system: SF-295
MDA-MB-435 = test system: MDA-MB-435
SNB-75 = test system: SNB-75
HCC 2998 = test system: HCC 2998
NCI/ADR-RES = test system: NCI/ADR-RES
BT-549 = test system: BT-549
NCI-H226 = test system: NCI-H226
COLO 205 = test system: COLO 205
LOX IMVI = test system: LOX IMVI
EKVX = test system: EKVX
TK-10 = test system: TK-10
T47D = test system: T47D
M14 = test system: M14
CAKI-1 = test system: CAKI-1
IGROV-1 = test system: IGROV-1
HCT-15 = test system: HCT-15
SR = test system: SR

| Structure (SMILES) | GI50 (K562) | GI50 (UO-31) | GI50 (SF-295) | GI50 (MDA-MB-435) | GI50 (SNB-75) | GI50 (HCC 2998) | GI50 (NCI/ADR-RES) | GI50 (BT-549) | GI50 (NCI-H226) | GI50 (COLO 205) | GI50 (LOX IMVI) | GI50 (EKVX) | GI50 (TK-10) | GI50 (T47D) | GI50 (M14) | GI50 (CAKI-1) | GI50 (IGROV-1) | GI50 (HCT-15) | GI50 (SR) |
| --- | --- | --- | --- | --- | --- | --- | --- | --- | --- | --- | --- | --- | --- | --- | --- | --- | --- | --- | --- |
| Cn1c(=O)c2c(O)cc(N)nc2n(C)c1=O | > 100 µM (inactive) | > 100 µM (inactive) | > 100 µM (inactive) | > 100 µM (inactive) | > 100 µM (inactive) | > 100 µM (inactive) | > 100 µM (inactive) | > 100 µM (inactive) | > 100 µM (inactive) | > 100 µM (inactive) | > 100 µM (inactive) | > 100 µM (inactive) | > 100 µM (inactive) | > 100 µM (inactive) | > 100 µM (inactive) | 28.9 µM (inactive) | > 100 µM (inactive) |  |  |
| Cc1ncn(-c2ccccc2O)c1C | > 100 µM (inactive) | > 100 µM (inactive) | 55.5 µM (inactive) | > 100 µM (inactive) | > 100 µM (inactive) |  | > 100 µM (inactive) | > 100 µM (inactive) | > 100 µM (inactive) | > 100 µM (inactive) | > 100 µM (inactive) | > 100 µM (inactive) | > 100 µM (inactive) | > 100 µM (inactive) | > 100 µM (inactive) | > 100 µM (inactive) | > 100 µM (inactive) | > 100 µM | > 100 µM (inactive) |
| N=C(N)NS(=O)(=O)c1ccc(Nc2c3ccccc3nc3c(C(=O)NNCCO)cccc23)cc1 | 0.055 µM (active) | 0.416 µM (active) | 0.407 µM (active) | 0.0585 µM (active) |  | 0.211 µM (active) | > 1 µM (active) | 0.121 µM (active) | 0.19 µM (active) | 0.183 µM (active) | 0.165 µM (active) | 0.361 µM (active) | > 1 µM (active) | 0.12 µM (active) | 0.21 µM (active) | 0.198 µM (active) | 0.153 µM (active) | 0.33 µM |  |
| CC(C)OC1OC(CO)C(O)CC1n1cc(F)c(=O)[nH]c1=O (stereo unspecified) | 34.4 µM (inactive) | > 100 µM (inactive) | > 100 µM (inactive) | > 100 µM (inactive) | > 100 µM (inactive) | > 100 µM (inactive) | > 100 µM (inactive) | > 100 µM (inactive) | > 100 µM (inactive) | > 100 µM (inactive) | 94 µM (inactive) | > 100 µM (inactive) | > 100 µM (inactive) | 48.4 µM (inactive) | > 100 µM (inactive) | 24.6 µM (inactive) | > 100 µM (inactive) | > 100 µM |  |
| Nc1nc(N)c(NC(=O)CCCO)c(=O)[nH]1 | > 100 µM (inactive) | > 100 µM (inactive) | > 100 µM (inactive) | > 100 µM (inactive) | > 100 µM (inactive) | > 100 µM (inactive) | > 100 µM (inactive) | > 100 µM (inactive) | > 100 µM (inactive) | > 100 µM (inactive) | > 100 µM (inactive) | > 100 µM (inactive) | > 100 µM (inactive) | > 100 µM (inactive) | > 100 µM (inactive) | > 100 µM (inactive) | > 100 µM (inactive) | > 100 µM |  |
| Oc1ccc(Br)cc1/C=N/c1cccc(C(F)(F)F)c1 | 12.4 µM (inactive) | 35.6 µM (inactive) | 38.6 µM (inactive) | 30.5 µM (inactive) | 42.6 µM (inactive) | 23.1 µM (inactive) | 28.5 µM (inactive) | 22.3 µM (inactive) | 17.3 µM (inactive) | 96.6 µM (inactive) | 18.3 µM (inactive) | 27.1 µM (inactive) | > 100 µM (inactive) | 19.9 µM (inactive) | 17.5 µM (inactive) | 66.7 µM (inactive) | 6.24 µM (inactive) | 6.07 µM |  |
